Assay results published in patent US9956200B2, “Compositions comprising dihydroquercetin for use in methods for treating the effects associated with skin inflammatory disorders” (BIONOOX SUISSE SA, priority 2014, dated 2018).
“And” between values parts separate entries of the source, which are not always exact repeats. Equal entries are not always repeated.

Key:
Assay type in all cases: cell-based
[1] = system: neutrophils triggered by fMLP; assay: ROS production by luminol chemiluminescence, neutrophils triggered by fMLP; details: fMLP 10^−6 M; DHQ 1, 10 or 100 μM, concentration per sample not given
Method: Neutrophils (5×10^5) are suspended in 0.5 mL of Hanks balanced salt solution containing 10 μM luminol at 37° C. The cells are then stimulated with 10^−6M fMLF (N-formylmethionyl-leucyl-phenylalanine). Chemiluminescence is recorded with a luminometer (Berthold-Biolumat LB937). Similarly, neutrophils were triggered by fMLP (10^−6 M) in the presence of different concentrations of DHQ (0, 1, 10 and 100 μM) at 37° C. in Hanks buffer containing 10 μM luminol and chemiluminescence was measured by a chemiluminometer. Total chemiluminescence counts during 22.21 min. (integrals) corresponding to total ROS production were determined.

[2] = system: polymorphonuclear neutrophils; assay: Oxygen consumption of polymorphonuclear neutrophils triggered by PMA and fMLP; details: data not shown
human mast cells = assay: Mast cell degranulation (beta-hexosaminidase release) induced by IgE then anti-IgE; details: versus kinase inhibitors and chromoglycate (reference molecule)
Description: Pure populations of human mast cells (HMC) are obtained by long-term culture of human normal hematopoietic progenitors (CD34^+ cells) in the continuous presence of Stem Cell Factor (SCF). Sources of these CD34^+ cells are mainly bone marrow, cord blood or peripheral blood. Usually, mononuclear cells from bone marrow and cord blood contain 0.5-1% of CD34^+ cells, whereas peripheral blood contains less than 0.1% of CD34^+ cells. Hematopoietic progenitor cells can be rapidly and efficiently enriched to a purity of about 85-98% using positive selection of magnetically labeled CD34^+ cells. Hematopoietic progenitor cells are then magnetically labeled using MACS CD34 MicroBeads. The magnetically labeled cells are enriched on positive selection columns in the magnetic field. Mononuclear cells from peripheral blood (PBMC), cord blood, or bone marrow may otherwise be obtained by density gradient centrifugation over Ficoll Paque®. Fractionation methods for producing mast cells are described in the art (see for instance Arock et al., 2008, Methods in Molecular biology 415: 241-254). Mast cell degranulation was induced by sequential treatment of mast cell by IgE, then by anti-IgE antibodies. Degranulation was subsequently measured by evaluating the release of beta-hexosaminidase, 1 h after IgE stimulation (see FIG. 4).

O=C1c2c(O)cc(O)cc2OC(c2ccc(O)c(O)c2)C1O (stereo not shown) [DHQ]
T.half (fall) [1]: 3.78 and 3.55 | T.half (rise) [1]: 1.55 | effect on oxygen consumption of polymorphonuclear neutrophils [2]: strongly inhibits | inhibitory activity on mast cell degranulation compared with reference molecules (human mast cells): superior to kinase inhibitors and chromoglycate
